Test results as given in patent US8217042B2, “Pyridopyrazines and their use as modulators of kinases” (Zentaris GmbH, priority 2005, dated 2012).

What was measured:
Jnk1 + Jnk2 = assay: Cell-free kinase assay (ALPHA technology), Jnk1 + Jnk2; type: biochemical; details: at 10 μM or 100 μM* ATP, recombinant human kinases
Description: (§1) The inhibitory effect of the inventive compounds was tested on various human serine/threonine kinases, tyrosine kinases and lipid kinases in enzymatic assays. Recombinant human kinases, for example Erk2, PI3Kalpha, -beta, -gamma, -delta, p38alpha, p38gamma, Jnk1, Jnk2 and others were used, in some cases as full-length kinases, in some cases as truncated fragments—but at least consisting of the functional kinase domains. The commercial kinase proteins (Proqinase, Upstate) were used as recombinant fusion proteins with GST (glutathione S-transferase) tag or His tag. Depending on the substrate type, the different kinase reactions were quantified by means of suitable ALPHA™ beads (PerkinElmer). […]
(§2) The fluorescence was detected the next morning in a Fusion™ alpha instrument (Perkin Elmer).
(§3) The calculation of % inhibition values per substance concentration was done by means of the following formula from the raw data determined in the Fusion™ alpha:
(§4) The controls were each determined 8 times, the substance samples each twice. 0% control contained neither any ATP nor any substrate; the 100% control contained no test substance. The IC50 values were determined with GraphPadPrism.

Erk →pRsk = assay: Cellular substrate phosphorylation (Western blotting), Erk substrate Rsk1; type: cell-based; details: 5 h, tumour cell line
Description: (§5) This method enables a statement of whether the kinase modulator investigated achieves the desired effect in a cellular context too, i.e., in this case, a substrate protein downstream of the target kinase is examined for its phosphorylation status. To this end, the cells incubated with substance are lysed and the overall protein is separated on a reducing polyacrylamide gel. Subsequently, the proteins are transferred by means of Western blotting to a PVDF membrane and the substrate bands sought are made visible with specific antibodies and a suitable detection method. The substrate proteins downstream of the target kinases are detected simultaneously with an anti-phospho antibody which is specific in each case and simultaneously a total antibody which recognizes the substrate total protein. The duplex technology of the ODYSSEY imager (LiCOR) enables this simultaneous measurement. The intensity of the total substrate bands is employed to normalize and quantify the phosphorylation inhibition or activation.
(§6) Suitable tumour cell lines (e.g. BxPC3, Hct116 or MDA MB468) were seeded into 6-well microtitre plates in a defined cell count (e.g. 350 000 cells/well for BxPC3 and Hct116) in the particular standard complete media and then incubated overnight in an incubator at 37° C., 5% CO2 and 95% air humidity. The cells were then incubated further for a further 24 h under reduced-serum conditions, i.e. in the particular medium except at only 0.25% serum. The test substances were made up as stock solutions (10 mM) in DMSO and incubated with the cells at final concentrations of 5, 15.8 and 50 μM for 5 h. This was followed by cell lysis in 25 mM Tris, 150 mM NaCl, 10 mM sodium pyrophosphate, 2 mM EGTA, 25 mM beta-glycerophosphate, 25 mM NaF, 10% glycerol, 0.75% NP-40, 100 μM NaVO4 buffer. After protein quantification by means of BCA (bicinchonic acid protein assay kit, Sigma) assay, amounts of protein of about 20 μg per track were separated on a Lammli polyacrylamide gel and then transferred onto a PVDF membrane (Millipore) by means of semi-dry Western blotting at 0.8 mA/cm^2 for 1 h. This was followed by prehybridization of the membrane for 1 hour in I-block reagent (Applied Biosystems) and overnight incubation with the specific antibodies. To determine the Erk and PI3K inhibition, the next substrates Rsk1 downstream were detected with the total antibody (Rsk #sc-231g C-21, Santa Cruz) and the phospho antibody (Phospho-p90RSK (S380) #9341, NEB Cell Signalling) and Akt with the total antibody (Akt1 #sc-20, Santa Cruz) and the phospho antibody (Phospho-Akt (Ser 473) #9271, NEB Cell Signaling). After the membrane had been washed, the secondary antibodies were incubated with anti-rabbit IR Dye 800 (#611-732-127, Rockland) for the phospho antibody and anti-goat Alexa Fluor 680 (#A-21081, […]) for the total protein antibody. After incubation for 30 min at room temperature in the dark, the hybridization of the detection antibody was detected on the membrane by scanning in an ODYSSEY imager (LiCOR).

PI3K →pAkt = assay: Cellular substrate phosphorylation (Western blotting), PI3K substrate Akt; type: cell-based; details: 5 h, tumour cell line
Description: as §5, §6

MDA-MB468 = assay: XTT assay, anti-proliferative action, MDA-MB468; type: cell-based; details: MDA-MB468 cells, 45 h incubation
Description: (§7) The principle of this test is based on the intracellular reduction of the tetrazolium dye XTT (sodium 3′-[1-(phenylaminocarbonyl)-3,4-tetrazolium]bis(4-methoxy-6-nitro)benzenenesulphonic acid, Sigma) to a formazan dye by mitochondrial dehydrogenases.
(§8) The dye is formed only by metabolically active cells; its photometrically measurable intensity is a quantitative indicator for the presence of living cells. The reduction in the dye formation as a result of incubation of the cells with substances serves as a parameter for the anti-proliferative action.
(§9) The tumour cell lines (ATCC) were seeded in 96-well microtitre plates in a defined cell count (5000 cells/well for BxPC3 and Hct116; 10 000 cells/well for MDA MB468), and then incubated overnight in an incubator at 37° C., 5% CO2 and 95% air humidity. The test substances were made up as stock solutions (10 mM) in DMSO. […] The cell plates were then incubated for 45 h in an incubator at 37° C., 5% CO2 and 95% air humidity.
(§10) For the detection reaction, the XTT substrate was admixed with PMS (N-methyldibenzopyrazine methylsulphate, Sigma) and added to the cells, so as to result in a final concentration of 325 μg of XTT/ml and 2.5 μg PMS/ml. The mixture was then incubated for 3 h at 37° C., 95% air humidity. Subsequently the formazan salt formed by cellular dehydrogenases was quantified at an absorption of 490 nm.
(§11) The evaluation of the % inhibition values was done by means of the following formula from the values for the optical densities measured in each case at 490 nm:
(§12) The controls were determined 8 times each, the substance samples twice each. 0% control contained no cells; the 100% control contained no test substance. The EC50 values were determined with GraphPadPrism.

PI3Kalpha = target: T1, PI3Kalpha (Homo sapiens, UniProt P42336); assay: Cell-free kinase assay (ALPHA technology), PI3K-ALPHA; type: biochemical; details: 100 μM ATP, recombinant human kinase
T1 construct: in some cases as full-length kinases, in some cases as truncated fragments; purchased Upstate 14-602
T1 sequence (P42336 whole entry, the tested form may be a part): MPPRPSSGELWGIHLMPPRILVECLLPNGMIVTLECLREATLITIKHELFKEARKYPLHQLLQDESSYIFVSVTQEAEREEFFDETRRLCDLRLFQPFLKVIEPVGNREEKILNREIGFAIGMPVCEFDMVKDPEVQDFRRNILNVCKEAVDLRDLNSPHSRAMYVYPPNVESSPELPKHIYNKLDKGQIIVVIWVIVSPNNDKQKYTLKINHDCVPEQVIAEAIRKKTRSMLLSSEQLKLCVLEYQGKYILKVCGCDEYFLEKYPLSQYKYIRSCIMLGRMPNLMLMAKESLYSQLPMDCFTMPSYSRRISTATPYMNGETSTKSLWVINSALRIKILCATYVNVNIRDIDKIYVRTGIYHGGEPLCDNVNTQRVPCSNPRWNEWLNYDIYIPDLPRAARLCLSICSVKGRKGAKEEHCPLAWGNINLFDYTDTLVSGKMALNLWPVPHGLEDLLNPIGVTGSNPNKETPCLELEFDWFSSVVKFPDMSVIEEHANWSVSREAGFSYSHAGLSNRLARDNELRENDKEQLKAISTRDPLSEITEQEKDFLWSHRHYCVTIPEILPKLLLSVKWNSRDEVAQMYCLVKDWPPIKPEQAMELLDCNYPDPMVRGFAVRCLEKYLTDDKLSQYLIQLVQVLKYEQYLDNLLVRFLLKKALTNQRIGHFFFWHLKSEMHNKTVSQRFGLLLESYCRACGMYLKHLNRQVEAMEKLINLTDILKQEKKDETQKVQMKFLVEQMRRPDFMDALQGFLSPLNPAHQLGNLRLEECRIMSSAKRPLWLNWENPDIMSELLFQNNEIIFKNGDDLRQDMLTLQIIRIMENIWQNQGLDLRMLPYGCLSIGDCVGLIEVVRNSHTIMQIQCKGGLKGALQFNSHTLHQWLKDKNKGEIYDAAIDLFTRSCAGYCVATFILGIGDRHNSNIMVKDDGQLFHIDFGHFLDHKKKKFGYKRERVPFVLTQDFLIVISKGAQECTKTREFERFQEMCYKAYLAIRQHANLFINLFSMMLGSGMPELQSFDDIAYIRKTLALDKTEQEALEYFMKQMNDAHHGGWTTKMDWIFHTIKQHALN
T1 sequence (P27986 whole entry partner, the tested form may be a part): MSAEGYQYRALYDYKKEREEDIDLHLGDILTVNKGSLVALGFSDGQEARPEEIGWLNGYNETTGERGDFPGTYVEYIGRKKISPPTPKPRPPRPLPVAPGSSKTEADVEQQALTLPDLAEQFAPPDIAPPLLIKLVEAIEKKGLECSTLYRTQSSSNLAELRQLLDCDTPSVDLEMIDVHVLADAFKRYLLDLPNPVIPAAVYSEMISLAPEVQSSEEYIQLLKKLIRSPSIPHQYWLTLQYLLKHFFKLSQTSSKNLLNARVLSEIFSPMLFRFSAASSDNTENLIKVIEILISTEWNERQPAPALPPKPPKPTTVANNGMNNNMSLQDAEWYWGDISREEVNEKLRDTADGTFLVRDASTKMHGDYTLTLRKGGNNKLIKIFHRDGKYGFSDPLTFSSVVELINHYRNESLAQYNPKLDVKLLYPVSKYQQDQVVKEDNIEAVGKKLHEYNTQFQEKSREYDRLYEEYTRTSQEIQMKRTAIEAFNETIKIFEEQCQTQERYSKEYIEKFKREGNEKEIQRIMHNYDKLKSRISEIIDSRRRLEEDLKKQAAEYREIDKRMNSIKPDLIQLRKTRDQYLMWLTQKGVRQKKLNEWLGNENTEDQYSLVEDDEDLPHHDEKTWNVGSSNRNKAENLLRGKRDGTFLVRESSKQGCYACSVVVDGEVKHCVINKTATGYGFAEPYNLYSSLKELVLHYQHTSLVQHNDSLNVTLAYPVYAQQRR
Description: (§13) The inhibitory effect of the inventive compounds was tested on various human serine/threonine kinases, tyrosine kinases and lipid kinases in enzymatic assays. Recombinant human kinases, for example Erk2, PI3Kalpha, -beta, -gamma, -delta, p38alpha, p38gamma, Jnk1, Jnk2 and others were used, in some cases as full-length kinases, in some cases as truncated fragments—but at least consisting of the functional kinase domains. The commercial kinase proteins (Proqinase, Upstate) were used as recombinant fusion proteins with GST (glutathione S-transferase) tag or His tag. Depending on the substrate type, the different kinase reactions were quantified by means of suitable ALPHA™ beads (PerkinElmer).
(§14) The substrate testing on the Erk assay is described in detail below. Selected test results of the Erk2, PI3Kalpha assays are cited below. […] The kinase reaction was then stopped by adding 10 μl of the ALPHA bead mix (10 μg/ml, #6760617/PerkinElmer), pre-incubated with anti-phospho MBP antibody (320 μM, #05-429/Upstate), in 25 mM Tris, 200 mM NaCl, 100 mM EDTA and 0.3% BSA, and left to stand overnight. • b) PI3K-ALPHAs (e.g. PI3Kalpha): The test substance, 1 ng of PI3Kalpha (#14-602, Upstate), 100 μM ATP and 20 μM PIP2 substrate (#P4508, Echelon) on a 384-well Optiplate (Perkin Elmer) for 1 h in 50 mM Hepes, 50 mM NaCl, 5 mM MgCl2, 0.05% Chaps, 5 mM DTT at pH 7.4. Subsequently, the kinase reaction was stopped by adding the ALPHA bead mix (10 μg/ml, #6760603/PerkinElmer), preincubated with 1 nM GST:Grp1 fusion protein (Upstate) and 15 nM biotinylated PIP3 (#C-39B6/Echelon) in 50 mM Hepes, 50 mM NaCl, 50 mM EDTA and 0.1% BSA, and left to stand overnight.
as §2, §3, §4

Hct116 = assay: XTT assay, anti-proliferative action, Hct116; type: cell-based; details: Homo sapiens, HCT-116, 45 h, Hct116 cells, 45 h incubation
Description: as §7, §8, §9, §10, §11, §12

BxPC3 = assay: XTT assay, anti-proliferative action, BxPC3; type: cell-based; details: BxPC3 cells, 45 h incubation
Description: as §7, §8, §9, §10, §11, §12

Erk2 = target: T2, Erk2; assay: Cell-free kinase assay (ALPHA technology), Erk2-ALPHA; type: biochemical; details: 10 μM ATP, recombinant human kinase
T2 construct: in some cases as full-length kinases, in some cases as truncated fragments; purchased Upstate 14-173
T2 sequence (P63085 whole entry, the tested form may be a part): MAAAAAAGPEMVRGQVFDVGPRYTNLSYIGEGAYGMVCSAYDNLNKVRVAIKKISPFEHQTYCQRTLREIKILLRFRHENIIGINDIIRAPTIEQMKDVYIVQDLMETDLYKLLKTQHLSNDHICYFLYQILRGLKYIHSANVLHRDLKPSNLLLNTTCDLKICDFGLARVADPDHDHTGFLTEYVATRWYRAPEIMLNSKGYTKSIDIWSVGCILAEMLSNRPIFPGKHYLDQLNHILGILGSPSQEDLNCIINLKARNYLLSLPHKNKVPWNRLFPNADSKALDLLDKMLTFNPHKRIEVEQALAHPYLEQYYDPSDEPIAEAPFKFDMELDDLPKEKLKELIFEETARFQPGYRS
Description: as §13, §14, §2, §3, §4

p38alpha = target: T3, p38alpha (Homo sapiens, UniProt Q16539); assay: Cell-free kinase assay (ALPHA technology), p38alpha; type: biochemical; details: at 10 μM or 100 μM* ATP, recombinant human kinase
T3 construct: in some cases as full-length kinases, in some cases as truncated fragments
T3 sequence (Q16539 whole entry, the tested form may be a part): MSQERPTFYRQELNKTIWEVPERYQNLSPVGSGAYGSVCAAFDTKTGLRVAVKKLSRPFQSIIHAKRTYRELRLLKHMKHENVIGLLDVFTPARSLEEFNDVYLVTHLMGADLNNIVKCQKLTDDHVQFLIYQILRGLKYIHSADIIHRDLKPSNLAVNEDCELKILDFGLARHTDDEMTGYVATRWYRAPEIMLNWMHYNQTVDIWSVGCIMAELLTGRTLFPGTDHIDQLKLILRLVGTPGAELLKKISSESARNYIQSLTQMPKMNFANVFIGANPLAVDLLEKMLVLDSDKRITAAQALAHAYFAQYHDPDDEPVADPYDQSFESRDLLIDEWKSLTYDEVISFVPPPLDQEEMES
Description: as §1, §2, §3, §4

SMILES	IC50 (Jnk1 + Jnk2)	melting point	EC50 (MDA-MB468; Homo sapiens, MDA-MB-468, 45 h)	IC50 (PI3Kalpha)	EC50 (Hct116)	EC50 (BxPC3; Homo sapiens, BXPC-3, 45 h)	IC50 (Erk2)	IC50 (p38alpha)	EC50 (MDA-MB468)	EC50 (BxPC3)	inhibition at 50 µM (Erk →pRsk)	inhibition at 50 µM (PI3K →pAkt)
CCNC(=O)Nc1ccc2ncc(-c3ccc(OC(=O)OCCOC)cc3)nc2n1 [Compound 10, 4-[6-(3-Ethylurea)pyrido[2,3-b]pyrazin-3-yl]phenyl(2-methoxyethyl)carbonate]	2.9 µM	230 to 232 °C	–	–	–	–	–	–	–	–	100%	100%
CCNC(=O)Nc1ccc2ncc(-c3cccc(OC(=O)OCCOC)c3)nc2n1 [Compound 16, 3-[6-(3-Ethylurea)pyrido[2,3-b]pyrazin-3-yl]phenyl 2-methoxyethyl carbonate]	5.6 µM	–	11 µM	3.3 µM	11 µM	> 25 µM	0.513 µM	–	–	–	–	–
CCNC(=O)Nc1ccc(-c2cnc3ccc(NC(=O)NCC)nc3n2)cc1 [Compound 23, 1-Ethyl-3-{3-[4-(3-ethylurea)phenyl]pyrido[2,3-b]pyrazin-6-yl}urea]	5.7 µM	> 350 °C (dec.)	> 25 µM	1.3 µM	16 µM	> 50 µM	1.9 µM	–	–	–	0%	70%
CCNC(=O)Nc1ccc2ncc(-c3ccc(OC(=O)OCCOC)c(OC)c3)nc2n1 [Compound 32, 4-[6-(3-Ethylurea)pyrido[2,3-b]pyrazin-3-yl]-2-methoxyphenyl 2-methoxyethyl carbonate]	4.2 µM	–	4.5 µM	1.3 µM	2.2 µM	5.9 µM	0.824 µM	–	–	–	100%	90%
CCNC(=O)Nc1ccc2ncc(-c3ccc(OC(=O)OCCOC)cc3)nc2n1 [Compound 56, 4-[6-(3-Ethylurea)pyrido[2,3-b]pyrazin-3-yl]phenyl 2-methoxyethyl carbonate p-toluenesulphonate]	3.1 µM	–	–	1.3 µM	9.4 µM	–	0.272 µM	–	15.5 µM	> 20 µM	–	–
CONC(=O)Nc1ccc2ncc(-c3ccc(O)c(OC)c3)nc2n1 [Compound 61, 1-Methoxy-3-[3-(4-hydroxy-3-methoxy-phenyl)-pyrido[2,3-b]pyrazin-6-yl]-urea]	2.1 µM	–	7.1 µM	1.5 µM	6 µM	–	0.3 µM	> 100 µM	–	–	–	–

Further lines, with some results ahead:

IC50 (Jnk1 + Jnk2)	melting point	EC50 (MDA-MB468; Homo sapiens, MDA-MB-468, 45 h)	IC50 (PI3Kalpha)	EC50 (Hct116)	EC50 (BxPC3; Homo sapiens, BXPC-3, 45 h)	IC50 (Erk2)	IC50 (p38alpha)	EC50 (MDA-MB468)	EC50 (BxPC3)	SMILES	inhibition at 50 µM (Erk →pRsk)	inhibition at 50 µM (PI3K →pAkt)
> 100 µM	243 to 245 °C	–	–	–	–	–	–	–	–	CCNC(=O)Nc1ccc2ncc(-c3ccc(OC(=O)OC)cc3)nc2n1 [Compound 9, 4-[6-(3-Ethylurea)pyrido[2,3-b]pyrazin-3-yl]phenyl methyl carbonate]	90%	50%
> 100 µM	–	> 25 µM	11.8 µM	3.4 µM	> 25 µM	0.167 µM	–	–	–	CCNC(=O)Nc1ccc2ncc(-c3ccc(OC(=O)OCC(C)C)cc3)nc2n1 [Compound 17, 4-[6-(3-Ethylurea)pyrido[2,3-b]pyrazin-3-yl]phenyl isobutyl carbonate]	–	–
> 31.6 µM	221 to 224 °C	–	7.5 µM	–	–	19.1 µM	> 100 µM	–	–	CCNC(=O)Nc1ccc2ncc(Nc3ccc(CN4CCCCC4)cc3)nc2n1 [Compound 51, 1-Ethyl-3-[3-(4-piperidin-1-ylmethylphenylamino)pyrido[2,3-b]pyrazin-6-yl]urea]	–	–
